Patent publication US20230075765A1, “PYRROLO[2,3-D]PYRIMIDINE DERIVATIVE TARGETING EGFR MUTATION, AS WELL AS THE PREPARATIVE METHOD AND THE USE THEREOF” (WEST CHINA HOSPITAL, SICHUAN UNIVERSITY, priority 2020, published 2023)

Assays:
Assay type in all cases: biochemical
[1] = target: T1, EGFR (T790M, C797S, L858R) (Homo sapiens, UniProt P00533, C797S/L858R/T790M); assay: Kinase inhibition, Lantha Screen assay; conditions: for Single-concentration inhibitory activity against EGFR (T790M, C7975, L858R), Mean (100% inhibition): compound concentration 2 nM; for IC50: read-out: Inhibitory activity (IC50) on EGFR (T790M, C797S, L858R)
T1 construct: purchased BPS 40351
T1 sequence (P00533 25-1210 T790M/C797S/L858R): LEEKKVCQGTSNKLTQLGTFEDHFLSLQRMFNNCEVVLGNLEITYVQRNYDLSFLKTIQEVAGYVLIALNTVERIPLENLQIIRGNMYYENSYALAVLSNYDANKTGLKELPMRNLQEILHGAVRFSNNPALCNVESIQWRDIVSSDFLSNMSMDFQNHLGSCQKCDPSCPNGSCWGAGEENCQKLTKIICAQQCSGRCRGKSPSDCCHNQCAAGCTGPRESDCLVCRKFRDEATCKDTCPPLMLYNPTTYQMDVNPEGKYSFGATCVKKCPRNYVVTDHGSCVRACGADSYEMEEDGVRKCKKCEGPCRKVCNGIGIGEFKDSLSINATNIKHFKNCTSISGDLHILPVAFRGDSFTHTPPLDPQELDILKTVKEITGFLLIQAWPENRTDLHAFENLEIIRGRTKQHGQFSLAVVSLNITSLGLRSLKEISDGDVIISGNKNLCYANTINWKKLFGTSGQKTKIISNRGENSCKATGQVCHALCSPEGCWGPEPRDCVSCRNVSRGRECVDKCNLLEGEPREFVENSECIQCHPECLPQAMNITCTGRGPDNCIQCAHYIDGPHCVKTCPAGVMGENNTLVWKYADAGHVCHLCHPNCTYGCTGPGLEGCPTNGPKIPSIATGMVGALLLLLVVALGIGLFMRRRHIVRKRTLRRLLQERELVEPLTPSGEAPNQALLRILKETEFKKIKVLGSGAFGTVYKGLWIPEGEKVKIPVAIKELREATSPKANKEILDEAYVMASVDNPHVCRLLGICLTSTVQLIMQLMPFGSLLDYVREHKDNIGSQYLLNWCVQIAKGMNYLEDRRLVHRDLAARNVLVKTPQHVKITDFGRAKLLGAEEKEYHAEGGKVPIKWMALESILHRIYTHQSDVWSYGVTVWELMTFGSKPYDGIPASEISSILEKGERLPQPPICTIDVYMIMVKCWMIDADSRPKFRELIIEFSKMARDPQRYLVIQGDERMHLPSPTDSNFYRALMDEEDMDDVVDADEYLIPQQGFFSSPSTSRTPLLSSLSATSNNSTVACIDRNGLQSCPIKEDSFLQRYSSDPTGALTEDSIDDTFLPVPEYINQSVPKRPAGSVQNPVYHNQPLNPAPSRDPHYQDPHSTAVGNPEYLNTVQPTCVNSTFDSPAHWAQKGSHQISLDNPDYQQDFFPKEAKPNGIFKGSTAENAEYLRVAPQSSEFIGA
Experimental: According to relevant literature, the inhibitory activity of five kinases (EGFR, EGFR-LT, EGFR-LTC, BTK, JAK3) were tested. Note: EGFR, EGFR-LT, EGFR-LTC: wild-type EGFR, L858R/T790M (EGFR-LT), or L858R/T790M/C797S (EGFR-LTC) mutant protein. […]
1) The initial detection concentration of the compound is 10 μM, and the compound was prepared into a 100-fold concentration, namely 1000 μM. 95 μl of 100% DMSO was added to the first well of a 96-well plate, and then 10 μl of 10 mM compound solution was added to prepare a 1000 μM compound solution. 50 μl of […] compound solution prepared above was transferred to a 384-well Echo plate;
2) 50 μl of 100% DMSO was transferred to two empty wells as a control without compound and enzyme;
3) Echo 550 was used to transfer 100 nl of compound solution to a 384-well test plate. 2.3 Kinase reaction and termination
1) EGFR (T790M, C797S, L858R) was added to 1× kinase buffer to form 2× kinase solution;
2) 5 μl of the above 2× kinase solution was transferred to a 384-well reaction plate, and 1× kinase buffer was added to the negative control well, then incubated for 10 min at room temperature;
3) Fluorescein-PolyGT and ATP were added to 1× kinase buffer to form a 2× substrate solution;
4) 5 μl of the above 2× substrate solution was transferred to a 384-well reaction plate;
5) The 384-well reaction plate was incubated at room temperature for 30 min;
6) 2× mixed solution of antibody and EDTA was prepared, of which […] was added to the 384-well reaction plate to stop the reaction;
7) The plate was left at room temperature for 60 min.
Percent inhibition=(max−Lantha signal)/(max−min)*100
“min” is the reading of the control well without enzyme; “max” is the reading of DMSO control well. 3) The data were imported into MS Excel, and IC50 results were subjected to curve fitting by using XLFit excel add-in version 5.4.0.8:
(§1) Fitting formula: Y=Bottom+(Top−Bottom)/(1+(IC50/X)^HillSlope)

[2] = target: T2, JAK3 (Homo sapiens, UniProt P52333); assay: Kinase inhibition, mobility shift assay; conditions: for Single-concentration inhibitory activity on JAK3, Mean (100% inhibition): compound concentration 1 nM; for IC50: read-out: Inhibitory activity (IC50) on JAK3
T2 construct: purchased Carna 08-046
T2 sequence (P52333 1-1124): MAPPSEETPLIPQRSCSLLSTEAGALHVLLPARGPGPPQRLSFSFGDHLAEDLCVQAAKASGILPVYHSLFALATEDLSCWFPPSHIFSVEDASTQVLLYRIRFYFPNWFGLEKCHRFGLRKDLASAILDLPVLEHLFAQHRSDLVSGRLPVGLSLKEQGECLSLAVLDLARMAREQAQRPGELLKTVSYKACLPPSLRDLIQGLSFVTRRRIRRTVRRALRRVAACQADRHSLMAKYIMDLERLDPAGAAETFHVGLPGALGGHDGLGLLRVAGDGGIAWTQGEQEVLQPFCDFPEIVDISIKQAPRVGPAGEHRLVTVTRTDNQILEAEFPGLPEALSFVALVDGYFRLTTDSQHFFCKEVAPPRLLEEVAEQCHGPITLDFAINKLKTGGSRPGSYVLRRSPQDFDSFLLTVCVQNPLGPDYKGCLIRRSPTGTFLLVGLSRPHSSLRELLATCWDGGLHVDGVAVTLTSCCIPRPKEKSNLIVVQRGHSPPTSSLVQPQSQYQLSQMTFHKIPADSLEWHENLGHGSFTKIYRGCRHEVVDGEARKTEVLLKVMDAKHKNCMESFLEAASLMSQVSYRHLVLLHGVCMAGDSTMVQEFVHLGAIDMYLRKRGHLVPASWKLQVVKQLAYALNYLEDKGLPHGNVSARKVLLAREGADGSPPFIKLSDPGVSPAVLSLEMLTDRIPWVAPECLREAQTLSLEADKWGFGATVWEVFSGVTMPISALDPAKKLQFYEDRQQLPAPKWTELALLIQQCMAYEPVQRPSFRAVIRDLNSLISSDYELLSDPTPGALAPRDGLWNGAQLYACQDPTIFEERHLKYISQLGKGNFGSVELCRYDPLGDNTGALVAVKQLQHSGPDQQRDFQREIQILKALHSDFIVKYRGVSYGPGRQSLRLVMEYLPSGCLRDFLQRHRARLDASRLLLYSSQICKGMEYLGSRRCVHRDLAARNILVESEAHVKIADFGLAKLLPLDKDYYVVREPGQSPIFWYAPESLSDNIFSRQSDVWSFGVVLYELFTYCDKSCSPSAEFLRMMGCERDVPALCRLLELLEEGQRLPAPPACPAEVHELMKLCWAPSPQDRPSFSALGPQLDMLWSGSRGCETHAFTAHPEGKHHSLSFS
Experimental: (§2) According to relevant literature, the inhibitory activity of five kinases (EGFR, EGFR-LT, EGFR-LTC, BTK, JAK3) were tested. Note: EGFR, EGFR-LT, EGFR-LTC: wild-type EGFR, L858R/T790M (EGFR-LT), or L858R/T790M/C797S (EGFR-LTC) mutant protein.
(§3) 95 μl of 100% DMSO was added to the first well of a 96-well plate, and then 5 μl of 10 mM compound solution was added to prepare a 500 μM compound solution.
(§4) 10 μl solution was taken out from the 50-fold concentration of compound solution (prepared and tested), and transferred to a 96-well plate, to which was added 90 μl kinase buffer to prepare a 5-fold concentration of compound solution.
(§5) 5 μl solution was taken out from the 5-fold concentration of compound solution in a 96-well plate, and transferred to a 384-well reaction plate. For example, the solution was transferred from well A1 of a 96-well plate to wells A1 and A2 of a 384-well plate, from well A2 of a 96-well plate to wells A3 and A4 of a 384-well plate, and so on.
(§6) 1) The kinase was added to 1× kinase buffer to form 2.5× kinase solution;
(§7) 2) 10 μl of the above 2.5× kinase solution was transferred to a 384-well reaction plate, and 1× kinase buffer was added to the negative control well, then incubated for 10 min at room temperature;
(§8) 3) FAM-labeled polypeptide and ATP were added to 1× kinase buffer to form a 2.5×substrate solution;
(§9) 5) The 384-well reaction plate was incubated at 28° C. for 60 min, to which was added 30 μl of stop solution to stop the reaction, and the model of biochemical incubator was SPX-100B-Z.
(§10) The conversion rate was read on CaliperEZ Reader.
(§11) 1) The conversion rate data were copied from CaliperEZ Reader II;
(§12) 2) The conversion rate was converted into the inhibition rate;
(§13) Percent inhibition=(max−conversion)/(max−min)*100
(§14) “min” is the reading of the control well without enzyme; “max” is the reading of DMSO control well.
(§15) 3) IC50 values were fitted by using XLFit excel add-in version 5.4.0.8.
as §1

[3] = target: T3, BTK (Homo sapiens, UniProt Q06187); assay: Kinase inhibition, mobility shift assay; conditions: for Single-concentration inhibitory activity on BTK, Mean (100% inhibition): compound concentration 4 nM; for IC50: read-out: Inhibitory activity (IC50) on BTK
T3 construct: purchased Carna 08-180
T3 sequence (Q06187 whole entry): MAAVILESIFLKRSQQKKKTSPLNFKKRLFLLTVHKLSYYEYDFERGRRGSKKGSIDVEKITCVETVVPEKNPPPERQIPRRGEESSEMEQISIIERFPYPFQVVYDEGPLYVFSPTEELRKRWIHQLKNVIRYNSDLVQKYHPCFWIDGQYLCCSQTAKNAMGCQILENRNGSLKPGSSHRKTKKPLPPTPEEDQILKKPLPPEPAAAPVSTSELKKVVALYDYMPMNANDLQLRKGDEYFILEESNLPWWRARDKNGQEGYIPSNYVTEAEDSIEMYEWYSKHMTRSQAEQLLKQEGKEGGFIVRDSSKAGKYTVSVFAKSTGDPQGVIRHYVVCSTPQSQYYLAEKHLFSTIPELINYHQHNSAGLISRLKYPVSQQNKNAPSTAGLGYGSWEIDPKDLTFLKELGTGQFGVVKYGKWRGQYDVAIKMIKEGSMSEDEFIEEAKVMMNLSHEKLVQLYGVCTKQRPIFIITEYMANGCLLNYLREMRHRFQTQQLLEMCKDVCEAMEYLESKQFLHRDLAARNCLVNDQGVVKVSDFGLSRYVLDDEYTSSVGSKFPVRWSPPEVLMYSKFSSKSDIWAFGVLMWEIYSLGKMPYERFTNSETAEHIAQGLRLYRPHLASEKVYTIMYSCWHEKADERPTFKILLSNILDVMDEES
Experimental: as §2, §3, §4, §5, §6, §7, §8, §9, §10, §11, §12, §13, §14, §15, §1

Single-concentration inhibitory activity against EGFR (T790M, C7975, L858R), Mean (100% inhibition) [1]	Single-concentration inhibitory activity on JAK3, Mean (100% inhibition) [2]	Single-concentration inhibitory activity on BTK, Mean (100% inhibition) [3]	IC50 [1]	IC50 [2]	IC50 [3]	SMILES
9.2 % inhibition	77 % inhibition	37 % inhibition				C=CC(=O)Nc1cccc(Oc2nc(Nc3ccc(N4CCN(C)CC4)c(Cl)c3)nc3[nH]ccc23)c1 [Compound 2]
7.8 % inhibition	26 % inhibition	15 % inhibition	1410 nM	2.3 nM	31 nM	C=CC(=O)Nc1cccc(Oc2nc(Nc3ccc(N4CCN(C)CC4)c(OC)c3)nc3[nH]ccc23)c1 [Compound 4]
5.8 % inhibition	23 % inhibition	3.8 % inhibition	2220 nM	2.2 nM	43 nM	C=CC(=O)Nc1cccc(Oc2nc(Nc3ccc(N4CCN(C)CC4)c([N+](=O)[O-])c3)nc3[nH]ccc23)c1 [Compound 5]
8.0 % inhibition	29 % inhibition	27 % inhibition	464 nM	2.2 nM	11 nM	C=CC(=O)Nc1cccc(Oc2nc(Nc3ccc(N4CCN(C)CC4)c(N)c3)nc3[nH]ccc23)c1 [Compound 6]
8.4 % inhibition	−1.4 % inhibition	5.9 % inhibition				C=CC(=O)Nc1cccc(Oc2nc(Nc3ccc(N4CCN(C)CC4)c([N+](=O)[O-])c3)nc3c2ccn3COC(=O)C(C)(C)C)c1 [Compound 7]
3.6 % inhibition	−7.6 % inhibition	−2.9 % inhibition				C=CC(=O)Nc1cccc(Oc2nc(Nc3ccc(N4CCN(C)CC4)c(N)c3)nc3c2ccn3COC(=O)C(C)(C)C)c1 [Compound 8]
2.1 % inhibition	−4.0 % inhibition	3.3 % inhibition				C=CC(=O)Nc1cccc(Oc2nc(Nc3ccc(N4CCN(C)CC4)c(I)c3)nc3c2ccn3COC(=O)C(C)(C)C)c1 [Compound 9]
